Marks after values point to notes of the source that are not given here.
What was measured:
[1] = test system: Ischemia-Reperfusion-Induced Gastric Lesions; test: Ischemia-Reperfusion-Induced Gastric Lesions; type: in vivo, male SD rats; details: dose 40 mg/kg in dimethylsulfoxide from the caudal artery 30 minutes before beginning collection of the blood
Procedure: (§1) Experiments on Hydrochloric acid-Ethanol-Induced Ulcers, Aspirin-Induced Ulcers, Water-Immersion stress-Induced Ulcers, Shay's Ulcers and Serotonin-Induced Ulcers were carried out using male Wister rats weighing about 200g in groups of six. Experiments on Ischemia-Reperfusion -Induced Gastric Lesions were carried out using male SD rats weighing about 250g in groups of six. Other than for the tests on Ischemia-Reperfusion-Induced Gastric Lesions Models, the test compounds were prepared by mixing thoroughly with polyethyleneglycol and 0.5% sodium carboxymethyl cellulose solution and emulsifying vigorously. Activities against respective ulcer models were evaluated by an inhibiting ratio obtained by dividing the difference between the ulceration indexes of the non-administered group and the test compound group by the non-administered group.
Each rat which had been fasted for 24 hours was anesthetized intraperitoneally with Nembutal and immobilized on a constant temperature pad in a dorsal position. After tracheotomy was performed, blood pressure was measured via a transducer for blood pressure from a cannula inserted in right carotid. The abdomen was opened, and the gastroesophageal junction was ligated. A tube was then passed through the duodenostomy into the stomach and the gastric lumen was lavaged with warm saline. 1 ml of 0.1N hydrochloric acid per 100g body weight was instilled into the stomach via the gastric tube and the pylorus was ligated. When the blood pressure became stable, 2% of weight (w/w) of the blood was collected from a cannula inserted in the left carotid into a syringe containing a heparin added saline solution. After 20 minutes, the collecting blood was retransfused and each rat was left to stand for 20 minutes, and slaughtered and the area of gastric mucosal lesions was measured and ulceration index was calculated based on the area. The test compound was dissolved in dimethylsulfoxide and administered at a dose of 40 mg/kg from the caudal artery 30 minutes before beginning collection of the blood.
(§2) The results of Aspirin-Induced Ulcers, Water-immersion stress-Induced Ulcers, Shay's Ulcers, Serotonin-induced Ulcers and Ischemia-Reperfusion-Induced Gastric lesions are shown in Table 3.

[2] = test system: Serotonin-Induced Ulcers; test: Serotonin-Induced Ulcers; type: in vivo, male Wister rats; details: Rattus norvegicus, 4.5 h, read-out: Serotonin, inhibiting ratio; for inhibition in vivo at 20 mg/kg: dose 20 mg/kg intraduodenally 30 minutes before Serotonin creatinine sulfate 30 mg/kg subcutaneously
Procedure: as §1
To each rat which had been fasted for 24 hours, 30 mg/kg of a solution of serotonin creatinine sulfate in a saline solution was administered subcutaneously. Each rat was then slaughtered after 4 and a half hours and area of gastric mucosal lesion formed facing the center line of greater curvature of the corpus ventriculi of stomach was measured and ulceration index was calculated based on the area. The test compound was administered intraduodenally 30 minutes before the administration of the Serotonin creatinine sulfate.
as §2

[3] = test system: Hydrochloric acid-Ethanol-Induced Ulcers; test: Hydrochloric acid-Ethanol-Induced Ulcers; type: in vivo, male Wister rats; details: Rattus norvegicus, intraduodenal, read-out: Inhibition ratio(%); for inhibition in vivo at 20 mg/kg: 3 h, Table 1, dose 20 mg/kg intraduodenally three hours before hydrochloric acid - 60% ethanol
Outline: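 Male Wistar rats (~200 g, n=6), fasted 24 h, received oral 150 mM HCl–60% ethanol (0.5 ml/100 g). Compound in PEG/0.5% CMC emulsion was given intraduodenally 1 or 3 h before. Fundic ulcer length scored 1 h after challenge; inhibition ratio calculated versus the non-administered group.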

[4] = test system: Aspirin-Induced Ulcers; test: Aspirin-Induced Ulcers; type: in vivo, male Wister rats; details: Rattus norvegicus, 9 h, 5 minutes before 150 mg/kg of aspirin orally, read-out: Aspirin, inhibiting ratio; for inhibition in vivo at 50 mg/kg: dose 50 mg/kg intraduodenally at pylorus ligation
Procedure: as §1
In each rat which had been fasted for 24 hours, the pyloric end of the stomach was ligated, and simultaneously the test compound was administered intraduodenally, and after 5 minutes, 150 mg/kg of aspirin was administered orally, respectively. After 9 hours from ligation, each rat was slaughtered, a length of ulcer formed at the fundus gland area of stomach was measured and ulceration index was calculated based on the length.
as §2

[5] = test system: Shay's Ulcers; test: Shay's Ulcers; type: in vivo, male Wister rats; details: Rattus norvegicus, intraduodenal, 14 h; dose 50 mg/kg intraduodenally immediately after the ligation; read-out: Shay, inhibiting ratio
Procedure: as §1
In each rat which had been fasted for 48 hours, the pyloric end of stomach was ligated, and each was kept without giving any food or water for 14 hours. Each rat was then slaughtered, and area of ulcer formed in the forestomach was measured and ulceration inded was calculated based on the area. The test compound was administered intraduodenally immediately after the ligation.
as §2

[6] = test system: Water-Immersion stress-Induced Ulcers; test: Water-Immersion stress-Induced Ulcers; type: in vivo, male Wister rats; details: Rattus norvegicus, po, 10 h, read-out: Water-Immersion Stress, inhibiting ratio; for inhibition in vivo at 20 mg/kg: dose 20 mg/kg orally 10 minutes before the exposure to stress; for inhibition in vivo at 50 mg/kg: dose 50 mg/kg orally 10 minutes before the exposure to stress
Procedure: as §1
Each rat which had been fasted for 15 hours was immobilized in a stress cage and immersed to chest depth in a water bath at 21°C. Each rat was slaughtered after 10 hours, a length of ulcer formed at the fundus gland area of stomach was measured and ulceration index was calculated based on the length. The test compound was administered orally 10 minutes before the exposure to stress.
as §2

Compound	Ischemia-Reperfusion, inhibiting ratio [1]	inhibition in vivo at 20 mg/kg [2]	inhibition in vivo at 20 mg/kg [3]	inhibition in vivo at 50 mg/kg [4]	inhibition in vivo at 50 mg/kg [5]	inhibition in vivo at 20 mg/kg [6]	inhibition in vivo at 20 mg/kg ([4]; dose 20 mg/kg intraduodenally at pylorus ligation)	inhibition in vivo at 50 mg/kg [6]	inhibition in vivo at 10 mg/kg ([3]; 1 h, Table 2, dose 10 mg/kg intraduodenally one hour before hydrochloric acid - 60% ethanol)	inhibition in vivo at 50 mg/kg ([2]; dose 50 mg/kg intraduodenally 30 minutes before Serotonin creatinine sulfate 30 mg/kg subcutaneously)
CC1=CC(OC(=O)c2ccc(N)cc2)C(O)C(C)(C)CC1=O (stereo not shown) [AU215, 4-(4-aminobenzoyloxy)-5-hydroxy-2,6,6-trimethyl-2-cyclohepten-1-one]	90(40)**	81%	56%	66%	73%	45%	–	–	–	–
CC1=CC(OC(=O)c2ccc([N+](=O)[O-])cc2)C(O)C(C)(C)CC1=O (stereo not shown) [AU212, 5-hydroxy-4-(4-nitrobenzoyloxy)-2,6,6-trimethyl-2-cyclohepten-1-one]	63(40)**	71%	90%	–	75%	48%	46%	–	–	–
COC1C=C(C)C(=O)CC(C)(C)C1OC(=O)c1ccc(N)cc1N (stereo not shown) [AU408, 5-(2,4-diaminobenzoyloxy)-4-methoxy-2,6,6-trimethyl-2-cyclohepten-1-one]	75(40)**	44%	58%	73%	43%	–	–	56%	–	–
COC12CC(C)(C)C(O1)C(O)CC2C (stereo not drawn) [AU105B, 2,4-cis-1-methoxy-2,6.6-trimethyl-8-oxabicyclo [3.2.1] octan-4-ol]	52(40)*	80%	63%	–	44%	65%	–	–	86%	–
COC1C(O)C=C(C)C(=O)CC1(C)C (stereo not shown) [AU222, 4-hydroxy-5-methoxy-2,6,6-trimethyl-2-cyclohepten-1-one]	–	84%	54%	28%	58%	34%	–	–	–	–
COC12CC(C)(C)C(O1)C(OC(=O)c1ccc(N)cc1)C=C2C (stereo not shown) [AU245, 4-(4-aminobenzoyloxy)-1-methoxy-2,6,6-trimethyl-8-oxabicyclo [3.2.1] oct-2-ene]	93(40)**	38%	58%	63%	35%	38%	–	–	–	–
CC1=CC(OC(=O)c2cccn2C)C(O)C(C)(C)CC1=O (stereo not shown) [AU501, 4-(1-methyl-2-pyrrolylcarbonyloxy)-5-hydroxy-2,6,6-trimethyl-2-cyclohepten-1-one]	77(40)**	–	56%	30%	–	–	–	22%	–	55%

From patent publication EP0528699B1, “Saishin N derivatives, process for their preparation and anti-ulcer agents containing them” (TOKYO TANABE COMPANY LIMITED, priority 1991, dated 1993)
